Experimental data from PMC8655892 (ACS Omega, 2021).
Structures can show the parent of a compound that is named as a salt.

Tests used:
[1] = Plasma protein binding by rapid equilibrium dialysis; conditions: mouse
[2] = Metabolic stability in human liver microsomes; type: in vitro ADME; conditions: 5 µM, 0.5 mg/mL microsomal protein, NADPH, up to 30 min
[3] = Metabolic stability in mouse liver microsomes; type: in vitro ADME; conditions: 5 µM, 0.5 mg/mL microsomal protein, NADPH, up to 30 min
[4] = In vivo pharmacokinetics after oral and IV administration; parameters: species or system Balb/C mice
[5] = Stability of rottlerin in plasma under storage conditions; type: in vitro ADME, mice; conditions: n=4
[6] = Plasma stability in mice plasma; conditions: 0–2 h, 10 µM, 37°C
[7] = intravenous, 1 mg/kg, Balb/C mice
[8] = male, Balb/C, mouse, plasma, iv, 1 mg/kg
[9] = male, Balb/C, mouse, plasma, po, 4 mg/kg

Q: Which fraction unbound at 4 h, 5 µM [1] does the source give for `CNC(=C[N+](=O)[O-])NCCSCc1ccc(CN(C)C)o1` [ranitidine, ranitidine hydrochloride] here?
A: 0.793

Q: With `CC(=O)c1c(O)c(C)c(O)c(Cc2c(O)c3c(c(C(=O)/C=C/c4ccccc4)c2O)OC(C)(C)C=C3)c1O` [Rottlerin] as the molecule, how does the “remained intact in HLMs” value [2] read?
A: over 91%

Q: And the “remained intact in MLMs” value [3]?
A: > 75%

Q: What about the Cl [4, 7] of the same molecule?
A: 5.83 ± 0.5 mL/min/kg

Q: What about the T1/2 [4, 7] of the same molecule?
A: 2.9 ± 0.8 h

Q: What about the Vd [4, 7] of the same molecule?
A: 1.4 ± 0.4 L/kg

Q: And the Cl ([4]; intravenous, 1 mg/kg, Balb/C mice, listed as rottlerin)?
A: ≤ 17 mL/min/kg

Q: And the “exposure (plasma levels)” value ([4]; iv, 1 mg/kg, Balb/C mice)?
A: ~3000 ng·h/mL

Q: What about the AUC(0-inf) [4, 8] of the same molecule?
A: 2920 ± 292 ng·h/mL

Q: And the AUC(0-t) [4, 8]?
A: 2850 ± 311 ng·h/mL

Q: What about the C0 [4, 8] of the same molecule?
A: 2110 ± 359 ng/mL

Q: What about the half-life ([4]; male, Balb/C, mouse, plasma, iv, 1 mg/kg, T1/2, intravenous, Balb/C mice) of the same molecule?
A: > 2 h

Q: What about the AUC(0-inf) [4, 9] of the same molecule?
A: 4090 ± 348 ng·h/mL

Q: What about the AUC(0-t) [4, 9] of the same molecule?
A: 4050 ± 360 ng·h/mL

Q: What about the Cmax [4, 9] of the same molecule?
A: 660 ± 60 ng/mL

Q: And the half-life ([4]; male, Balb/C, mouse, plasma, po, 4 mg/kg, T1/2, oral, Balb/C mice)?
A: > 2 h

Q: What about the Tmax ([4]; male, Balb/C, mouse, plasma, po, 4 mg/kg, Tmax, Balb/C mice) of the same molecule?
A: ~2.4 h

Q: And the oral bioavailability ([4]; oral 4 mg/kg vs IV 1 mg/kg, Balb/C mice)?
A: 35–36%

Q: And the Cl ([4]; oral, 4 mg/kg, Balb/C mice)?
A: 16.8 ± 1.3 mL/min/kg

Q: And the T1/2 ([4]; oral, 4 mg/kg, Balb/C mice)?
A: 2.7 ± 0.4 h

Q: And the Vd ([4]; oral, 4 mg/kg, Balb/C mice)?
A: 3.8 ± 0.6 L/kg

Q: And the “exposure (plasma levels)” value ([4]; oral, 4 mg/kg, Balb/C mice)?
A: around 4 μg h/mL

Q: What about the Cl ([4]; oral, 4 mg/kg, Balb/C mice, listed as rottlerin) of the same molecule?
A: ≤ 17 mL/min/kg

Q: What about the “stability study accuracy (%)” value ([5]; autosampler: processed samples, 4 °C, 24 h, HQC 800 ng/mL) of the same molecule?
A: 92.89%

Q: What about the “stability study accuracy (%)” value ([5]; autosampler: processed samples, 4 °C, 24 h, LQC 5.7 ng/mL) of the same molecule?
A: 90.04%

Q: And the “stability study accuracy (%)” value ([5]; freeze–thaw: three cycles, −20 °C / room temperature, HQC 800 ng/mL)?
A: 91.69%

Q: And the “stability study accuracy (%)” value ([5]; freeze–thaw: three cycles, −20 °C / room temperature, LQC 5.7 ng/mL)?
A: 88.60%

Q: And the “degradation in mice plasma” value [6]?
A: < 5%
